{"source": "ChEMBL document CHEMBL5576112", "about": "“Synthesis, in silico, in vitro evaluation of furanyl- and thiophenyl-3-phenyl-1H-indole-2-carbohydrazide derivatives as tubulin inhibitors and anticancer agents” (RSC Med Chem, 2024)", "key": {"SK-MEL-5 [1]": {"system": "SK-MEL-5", "test": "Growth inhibition of human SK-MEL-5 cells at 10 uM measured after 48 hrs by sulforhodamine B assay", "type": "functional, cell-based"}, "MCF7 [2]": {"system": "MCF7", "test": "Growth inhibition of human MCF7 cells at 10 uM measured after 48 hrs by sulforhodamine B assay", "type": "functional, cell-based"}, "UACC-62 [3]": {"system": "UACC-62", "test": "Growth inhibition of human UACC-62 cells at 10 uM measured after 48 hrs by sulforhodamine B assay", "type": "functional, cell-based"}, "SK-MEL-5 [4]": {"system": "SK-MEL-5", "test": "Growth inhibition of human SK-MEL-5 cells measured after 48 hrs by sulforhodamine B assay", "type": "functional", "conditions": "for CC50: read-out: LC50 (the source's name)"}, "Sus scrofa [5]": {"organism": "Sus scrofa", "test": "Inhibition of porcine brain tubulin polymerization assessed as microtubule destabilization by measuring relative fluorescence unit at 10 uM measured at 60 secs interval for 60 mins in presence of GTP by fluorescence assay"}, "MDA-MB-435 [6]": {"system": "MDA-MB-435", "test": "Growth inhibition of human MDA-MB-435 cells measured after 48 hrs by sulforhodamine B assay", "type": "functional", "conditions": "for CC50: read-out: LC50 (the source's name)"}, "NCI-H522 [7]": {"system": "NCI-H522", "test": "Growth inhibition of human NCI-H522 cells measured after 48 hrs by sulforhodamine B assay", "type": "functional", "conditions": "for CC50: read-out: LC50 (the source's name)"}, "NCI-H522 [8]": {"system": "NCI-H522", "test": "Growth inhibition of human NCI-H522 cells at 10 uM measured after 48 hrs by sulforhodamine B assay", "type": "functional, cell-based"}, "COLO 205 [9]": {"system": "COLO 205", "test": "Growth inhibition of human COLO 205 cells at 10 uM measured after 48 hrs by sulforhodamine B assay", "type": "functional, cell-based"}, "COLO 205 [10]": {"system": "COLO 205", "test": "Growth inhibition of human COLO 205 cells measured after 48 hrs by sulforhodamine B assay", "type": "functional", "conditions": "for CC50: read-out: LC50 (the source's name)"}, "OVCAR-8 [11]": {"system": "OVCAR-8", "test": "Growth inhibition of human OVCAR-8 cells at 10 uM measured after 48 hrs by sulforhodamine B assay", "type": "functional, cell-based"}, "MDA-MB-435 [12]": {"system": "MDA-MB-435", "test": "Growth inhibition of human MDA-MB-435 cells at 10 uM measured after 48 hrs by sulforhodamine B assay", "type": "functional, cell-based"}, "UACC-62 [13]": {"system": "UACC-62", "test": "Growth inhibition of human UACC-62 cells measured after 48 hrs by sulforhodamine B assay", "type": "functional", "conditions": "for CC50: read-out: LC50 (the source's name)"}, "MCF7 [14]": {"system": "MCF7", "test": "Growth inhibition of human MCF7 cells measured after 48 hrs by sulforhodamine B assay", "type": "functional"}, "K562 [15]": {"system": "K562", "test": "Growth inhibition of human K562 cells measured after 48 hrs by sulforhodamine B assay", "type": "functional", "conditions": "for CC50: read-out: LC50 (the source's name)"}, "OVCAR-8 [16]": {"system": "OVCAR-8", "test": "Growth inhibition of human OVCAR-8 cells measured after 48 hrs by sulforhodamine B assay", "type": "functional", "conditions": "for CC50: read-out: LC50 (the source's name)"}, "K562 [17]": {"system": "K562", "test": "Growth inhibition of human K562 cells at 10 uM measured after 48 hrs by sulforhodamine B assay", "type": "functional, cell-based"}, "Sus scrofa [18]": {"organism": "Sus scrofa", "test": "Inhibition of porcine brain tubulin polymerization assessed as microtubule destabilization at 10 uM measured at 60 secs interval for 60 mins in presence of GTP by fluorescence assay"}}, "note": "The source made the active and inactive calls. The calls are words filed in the database; no cut-off is given here.", "data": [{"smiles": "O=C(N/N=C/c1ccco1)c1[nH]c2ccc(Br)cc2c1-c1ccccc1", "values": [{"measurement": "growth inhibition (GI)", "setting": "SK-MEL-5 [1]", "result": "Active"}, {"measurement": "growth inhibition (GI)", "setting": "MCF7 [2]", "result": "Active"}, {"measurement": "growth inhibition (GI)", "setting": "UACC-62 [3]", "result": "Active"}, {"measurement": "GI50", "setting": "SK-MEL-5 [4]", "result": 88.7, "unit": "nM"}, {"measurement": "CC50", "setting": "SK-MEL-5 [4]", "result": "> 100", "unit": "µM"}, {"measurement": "RFU", "setting": "Sus scrofa [5]", "result": 50, "unit": "a.u."}, {"measurement": "GI50", "setting": "MDA-MB-435 [6]", "result": 34, "unit": "nM"}, {"measurement": "CC50", "setting": "MDA-MB-435 [6]", "result": "> 100", "unit": "µM"}, {"measurement": "GI50", "setting": "NCI-H522 [7]", "result": 23.9, "unit": "nM"}, {"measurement": "CC50", "setting": "NCI-H522 [7]", "result": "> 100", "unit": "µM"}, {"measurement": "growth inhibition (GI)", "setting": "NCI-H522 [8]", "result": "Active"}, {"measurement": "growth inhibition (GI)", "setting": "COLO 205 [9]", "result": "Active"}, {"measurement": "GI50", "setting": "COLO 205 [10]", "result": 113, "unit": "nM"}, {"measurement": "CC50", "setting": "COLO 205 [10]", "result": "> 100000", "unit": "nM"}, {"measurement": "growth inhibition (GI)", "setting": "OVCAR-8 [11]", "result": "Active"}, {"measurement": "growth inhibition (GI)", "setting": "MDA-MB-435 [12]", "result": "Active"}, {"measurement": "GI50", "setting": "UACC-62 [13]", "result": 39.4, "unit": "nM"}, {"measurement": "CC50", "setting": "UACC-62 [13]", "result": "> 100", "unit": "µM"}, {"measurement": "GI50", "setting": "MCF7 [14]", "result": 41.4, "unit": "nM"}, {"measurement": "LC50", "setting": "MCF7 [14]", "result": "> 100", "unit": "µM"}, {"measurement": "GI50", "setting": "K562 [15]", "result": 40.7, "unit": "nM"}, {"measurement": "CC50", "setting": "K562 [15]", "result": "> 100", "unit": "µM"}, {"measurement": "GI50", "setting": "OVCAR-8 [16]", "result": 121, "unit": "nM"}, {"measurement": "CC50", "setting": "OVCAR-8 [16]", "result": "> 100", "unit": "µM"}, {"measurement": "growth inhibition (GI)", "setting": "K562 [17]", "result": "Active"}]}, {"smiles": "O=C(N/N=C/c1ccc([N+](=O)[O-])s1)c1[nH]c2ccc(Br)cc2c1-c1ccccc1", "values": [{"measurement": "growth inhibition (GI)", "setting": "SK-MEL-5 [1]", "result": "Active"}, {"measurement": "GI50", "setting": "SK-MEL-5 [4]", "result": 214, "unit": "nM"}, {"measurement": "CC50", "setting": "SK-MEL-5 [4]", "result": 1.87, "unit": "µM"}, {"measurement": "GI50", "setting": "MDA-MB-435 [6]", "result": 181, "unit": "nM"}, {"measurement": "CC50", "setting": "MDA-MB-435 [6]", "result": 0.861, "unit": "µM"}, {"measurement": "inhibition", "setting": "Sus scrofa [18]", "result": "inactive"}, {"measurement": "GI50", "setting": "NCI-H522 [7]", "result": 47.3, "unit": "nM"}, {"measurement": "CC50", "setting": "NCI-H522 [7]", "result": "> 100", "unit": "µM"}, {"measurement": "growth inhibition (GI)", "setting": "NCI-H522 [8]", "result": "Active"}, {"measurement": "growth inhibition (GI)", "setting": "COLO 205 [9]", "result": "Active"}, {"measurement": "GI50", "setting": "COLO 205 [10]", "result": 203, "unit": "nM"}, {"measurement": "CC50", "setting": "COLO 205 [10]", "result": 795, "unit": "nM"}, {"measurement": "growth inhibition (GI)", "setting": "MDA-MB-435 [12]", "result": "Active"}]}, {"smiles": "N#Cc1ccc(/C=N/NC(=O)c2[nH]c3ccc(Br)cc3c2-c2ccccc2)o1", "values": [{"measurement": "growth inhibition (GI)", "setting": "SK-MEL-5 [1]", "result": "Active"}, {"measurement": "growth inhibition (GI)", "setting": "MCF7 [2]", "result": "Active"}, {"measurement": "growth inhibition (GI)", "setting": "UACC-62 [3]", "result": "Active"}, {"measurement": "GI50", "setting": "SK-MEL-5 [4]", "result": 231, "unit": "nM"}, {"measurement": "CC50", "setting": "SK-MEL-5 [4]", "result": "> 100", "unit": "µM"}, {"measurement": "GI50", "setting": "MDA-MB-435 [6]", "result": 186, "unit": "nM"}, {"measurement": "CC50", "setting": "MDA-MB-435 [6]", "result": "> 100", "unit": "µM"}, {"measurement": "inhibition", "setting": "Sus scrofa [18]", "result": "inactive"}, {"measurement": "GI50", "setting": "NCI-H522 [7]", "result": 82.6, "unit": "nM"}, {"measurement": "CC50", "setting": "NCI-H522 [7]", "result": "> 100", "unit": "µM"}, {"measurement": "growth inhibition (GI)", "setting": "NCI-H522 [8]", "result": "Active"}, {"measurement": "growth inhibition (GI)", "setting": "COLO 205 [9]", "result": "Active"}, {"measurement": "GI50", "setting": "COLO 205 [10]", "result": 198, "unit": "nM"}, {"measurement": "CC50", "setting": "COLO 205 [10]", "result": 692, "unit": "nM"}, {"measurement": "growth inhibition (GI)", "setting": "OVCAR-8 [11]", "result": "Active"}, {"measurement": "growth inhibition (GI)", "setting": "MDA-MB-435 [12]", "result": "Active"}, {"measurement": "GI50", "setting": "UACC-62 [13]", "result": 462, "unit": "nM"}, {"measurement": "CC50", "setting": "UACC-62 [13]", "result": "> 100", "unit": "µM"}, {"measurement": "GI50", "setting": "MCF7 [14]", "result": 324, "unit": "nM"}, {"measurement": "LC50", "setting": "MCF7 [14]", "result": "> 100", "unit": "µM"}, {"measurement": "GI50", "setting": "K562 [15]", "result": 69, "unit": "nM"}, {"measurement": "CC50", "setting": "K562 [15]", "result": "> 100", "unit": "µM"}, {"measurement": "GI50", "setting": "OVCAR-8 [16]", "result": 209, "unit": "nM"}, {"measurement": "CC50", "setting": "OVCAR-8 [16]", "result": "> 100", "unit": "µM"}, {"measurement": "growth inhibition (GI)", "setting": "K562 [17]", "result": "Active"}]}]}
